Patent US12486253B2, “Therapeutics for the degradation of mutant BRAF” (C4 THERAPEUTICS, INC., priority 2021, dated 2025)
“Also recorded” adds a separate entry of the source.

Tests used:
Format in all cases: cell-based
BRAF V600E = BRAF V600E (Homo sapiens, UniProt P15056, V600E); experiment: Western blot of BRAF V600E levels in A375 cells; set-up: host or cells: A375
SALL4 = biological target: T1, SALL4 (Homo sapiens, UniProt Q9UJQ4); experiment: SALL4 protein levels after treatment; conditions: various concentrations
T1 construct: endogenously expressing SALL4 with HiBiT fusion tag via CRISPR; endogenous in cells; host or cells: KELLY.2 (from KELLY, DSMZ ACC-No. 355)

RAF1 (a.k.a CRAF) = RAF1 (a.k.a CRAF) (Homo sapiens, UniProt P04049); experiment: Global proteomics profiling, A375 cells; set-up: endogenous in cells; host or cells: A375 (A8.2); conditions: 300 nM, 24 hours
Method: Each cell line was treated in duplicate with either DMSO or Compound 157 (final concentration 300 nM) for 24 hours in an incubator at 37° C. with 5% CO2. After the 24-hour incubation, cells were harvested, washed twice with PBS, and snap frozen in liquid nitrogen. Samples were re-suspended in lysis buffer [8 M urea, 50 mM HEPES (pH 8.5), 50 mM NaCl, 1× protease inhibitor cocktail] and lysed by sonication at 4° C. with 85% amplitude in a pulse setting with 30 seconds on and 30 seconds off for a total sonication time of 5 minutes. Lysates were centrifuged at maximum speed for 10 minutes at 4° C. and the supernatant collected, reduced for 1 hour at room temperature with 5 mM TCEP, and the cysteine residues were then alkylated with 15 mM iodoacetamide (room temperature, in dark, 30 minutes). Protein content was extracted by methanol-chloroform precipitation and subsequent ice-cold acetone washes. Protein pellets were resuspended in 8 M urea, 50 mM HEPES (pH 8.5) buffer and protein concentrations were measured by BCA assay. […]
For peptide tandem mass tag (TMT) labeling, 100 μg of peptides per sample was prepared at […] concentration in 200 mM HEPES (pH 8.5), 30% acetonitrile (ACN) and each the specific TMT reagent. […] TMT reporter ion intensities were quantified by extracting the signal-to-noise ratio for each. […]

A375 cells = experiment: CellTiter-Glo cell growth inhibition, A375 cells; conditions: Homo sapiens, A-375, 72 hr, mean of at least n = 3
Method: (§1) A375 cell viability was determined based on quantification of ATP using CellTiter-Glo® 2.0 luminescent Assay kit, which signals the presence of metabolically-active cells. Briefly, test compound was added to 384-well plates at a top concentration of 10 μM with 14 points, half log titration in duplicates. A375 cells were seeded into the 384-well plates in DMEM medium containing 10% FBS at a cell density of 250 cells per well. Cells treated in the absence of the test compound were the negative control, normalized to 100% viability, and cells treated in the absence of CellTiter-Glo® 2.0 were the positive control, normalized to 0% viability. A375 cells were incubated at 37° C. with 5% CO2 for 72 hr. CellTiter-Glo reagent was then added to the cells and Luminescence was acquired on EnVision™ Multilabel Reader (PerkinElmer, Santa Clara, CA, USA).

A375-NRAS^Q61K cells = experiment: CellTiter-Glo growth inhibition assay, A375-NRAS^Q61K cells; conditions: 96 hr, mean of at least n = 3
Method: A375-NRAS^Q61K cells (harboring BRAF homozygous V600E mutation and NRAS homozygous Q61K mutation) were purchased from ATCC. DMEM Medium (without phenol red and supplemented with L-glutamine) was purchased from Corning (Corning, NY, USA). CellTiter-Glo® 2.0 Assay was purchased from Promega (Madison, WI, USA). Cell culture flasks and 384-well microplates were acquired from VWR (Radnor, PA, USA) or Corning (Corning, NY, USA).
as §1, with “A375-NRAS^Q61K cell viability” for “A375 cell viability”, “in duplicates. A375-NRAS^Q61K cells were” for “in duplicates. A375 cells were”, “CO2 for 96 hr. CellTiter-Glo” for “CO2 for 72 hr. CellTiter-Glo”

BRAF V600E, sequence (P15056 whole entry V600E): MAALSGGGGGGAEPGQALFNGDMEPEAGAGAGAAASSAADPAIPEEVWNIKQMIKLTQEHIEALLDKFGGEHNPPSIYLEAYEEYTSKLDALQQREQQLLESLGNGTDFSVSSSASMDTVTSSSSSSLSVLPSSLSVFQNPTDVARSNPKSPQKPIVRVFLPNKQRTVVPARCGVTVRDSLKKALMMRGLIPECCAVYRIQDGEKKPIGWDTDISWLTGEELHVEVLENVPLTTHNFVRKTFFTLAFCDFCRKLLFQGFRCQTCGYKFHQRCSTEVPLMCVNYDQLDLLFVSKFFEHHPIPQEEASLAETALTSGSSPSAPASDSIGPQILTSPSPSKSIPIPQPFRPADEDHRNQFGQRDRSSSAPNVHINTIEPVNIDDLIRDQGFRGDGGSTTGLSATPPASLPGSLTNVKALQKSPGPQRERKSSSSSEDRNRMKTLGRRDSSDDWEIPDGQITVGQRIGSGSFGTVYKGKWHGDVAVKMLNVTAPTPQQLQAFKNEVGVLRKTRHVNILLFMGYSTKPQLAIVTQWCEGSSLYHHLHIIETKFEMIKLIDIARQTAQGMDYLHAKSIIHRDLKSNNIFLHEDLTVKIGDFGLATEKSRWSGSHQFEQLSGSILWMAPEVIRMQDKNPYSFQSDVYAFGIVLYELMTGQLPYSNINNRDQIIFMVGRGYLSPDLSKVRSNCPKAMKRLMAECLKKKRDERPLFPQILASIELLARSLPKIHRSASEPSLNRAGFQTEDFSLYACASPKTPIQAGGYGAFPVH
RAF1 (a.k.a CRAF), sequence (P04049 whole entry): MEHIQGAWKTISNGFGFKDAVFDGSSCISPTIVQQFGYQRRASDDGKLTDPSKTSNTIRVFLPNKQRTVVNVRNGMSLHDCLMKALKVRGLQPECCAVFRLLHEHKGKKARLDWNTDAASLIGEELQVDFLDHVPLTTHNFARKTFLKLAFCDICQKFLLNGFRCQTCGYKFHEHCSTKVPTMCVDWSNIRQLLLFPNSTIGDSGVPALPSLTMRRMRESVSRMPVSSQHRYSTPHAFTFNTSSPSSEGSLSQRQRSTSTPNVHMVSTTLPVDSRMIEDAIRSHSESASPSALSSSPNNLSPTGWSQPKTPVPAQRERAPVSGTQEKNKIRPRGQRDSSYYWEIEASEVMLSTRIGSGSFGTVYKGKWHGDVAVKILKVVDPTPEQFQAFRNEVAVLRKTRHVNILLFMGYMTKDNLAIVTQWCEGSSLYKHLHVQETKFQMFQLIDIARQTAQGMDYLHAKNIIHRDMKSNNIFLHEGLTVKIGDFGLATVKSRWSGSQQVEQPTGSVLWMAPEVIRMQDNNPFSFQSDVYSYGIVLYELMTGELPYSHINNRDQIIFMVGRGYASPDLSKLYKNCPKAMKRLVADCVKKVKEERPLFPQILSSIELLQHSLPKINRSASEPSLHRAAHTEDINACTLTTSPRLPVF
T1 sequence (Q9UJQ4 whole entry, the tested form may be a part): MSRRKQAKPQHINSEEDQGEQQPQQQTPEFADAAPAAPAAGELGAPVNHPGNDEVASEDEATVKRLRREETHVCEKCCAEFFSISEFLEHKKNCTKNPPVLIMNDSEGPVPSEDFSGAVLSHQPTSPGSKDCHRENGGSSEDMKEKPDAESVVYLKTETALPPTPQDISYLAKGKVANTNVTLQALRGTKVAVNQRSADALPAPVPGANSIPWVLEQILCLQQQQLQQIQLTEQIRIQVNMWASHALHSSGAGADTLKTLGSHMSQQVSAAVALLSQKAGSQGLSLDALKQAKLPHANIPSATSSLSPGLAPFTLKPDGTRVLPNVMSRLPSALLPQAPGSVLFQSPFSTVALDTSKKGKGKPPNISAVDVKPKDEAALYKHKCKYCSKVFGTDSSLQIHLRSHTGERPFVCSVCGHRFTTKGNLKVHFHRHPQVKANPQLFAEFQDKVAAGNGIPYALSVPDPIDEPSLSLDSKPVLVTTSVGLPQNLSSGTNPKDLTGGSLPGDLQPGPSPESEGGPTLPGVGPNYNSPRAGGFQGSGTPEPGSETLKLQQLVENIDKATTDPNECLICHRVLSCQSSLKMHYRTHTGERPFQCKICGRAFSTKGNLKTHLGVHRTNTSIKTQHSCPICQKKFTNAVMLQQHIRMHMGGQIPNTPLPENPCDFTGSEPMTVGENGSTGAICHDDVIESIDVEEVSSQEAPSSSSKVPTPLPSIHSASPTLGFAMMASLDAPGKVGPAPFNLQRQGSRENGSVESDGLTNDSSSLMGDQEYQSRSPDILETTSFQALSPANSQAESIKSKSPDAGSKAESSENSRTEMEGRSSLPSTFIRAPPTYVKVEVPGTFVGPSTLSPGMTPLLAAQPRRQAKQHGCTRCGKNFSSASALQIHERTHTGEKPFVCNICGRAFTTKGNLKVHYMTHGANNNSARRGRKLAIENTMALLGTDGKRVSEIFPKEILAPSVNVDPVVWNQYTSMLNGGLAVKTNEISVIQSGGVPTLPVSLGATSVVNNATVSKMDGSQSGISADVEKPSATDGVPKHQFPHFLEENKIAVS

CCN(C)S(=O)(=O)Nc1ccc(F)c(Oc2ccc3ncn([C@H]4COC5(CCN(C(=O)CC6(O)CCN(c7cc8c(cc7F)c(N7CCC(=O)NC7=O)nn8C)CC6)CC5)C4)c(=O)c3c2)c1C#N [Compound 157, (3R)-3-[6-[2-cyano-3-[[ethyl(methyl)sulfamoyl]amino]-6-fluorophenoxy]-4-oxoquinazolin-3-yl]-8-[2-[1-[3-(2,4-dioxo-1,3-diazinan-1-yl)-5-fluoro-1-methylindazol-6-yl]-4-hydroxypiperidin-4-yl]acetyl]-1-oxa-8-azaspiro[4.5]decane]
BRAF V600E levels (BRAF V600E): significantly decreased; also recorded: decrease in a dose dependent manner | SALL4 protein levels (SALL4): steady | RAF1 (CRAF) protein level change (RAF1 (a.k.a CRAF)): remain largely unchanged | GI50 (A375 cells): 0.0093 µM | GI50 (A375-NRAS^Q61K cells): 0.055 µM
